Measurements from patent publication US20140024030A1, “PRESELECTION OF SUBJECTS FOR THERAPEUTIC TREATMENT WITH OXYGEN SENSITIVE AGENTS BASED IN HYPOXIC STATUS” (priority 2010, published 2014).

Tests used:
[1] = tested on: locally advanced, unresectable or metastatic pancreatic cancer; settings: 100 mg cohort, arms: gemcitabine plus erlotinib vs gemcitabine alone, cited from earlier work
[2] = tested on: HCT116 human colon carcinoma xenograft; assay: HCT116 xenograft model in nude mice (hypoxic tumor); type: in vivo; settings: for efficacy at slowing tumor growth in HCT116 (high hypoxia) versus 786O (low hypoxia) tumors: comparison of HCT116 and 786O xenografts in nude mice
Protocol: Human tumor cell lines HCT116 (ATCC #CRL-247; Schroy P C, et al. Cancer 76: 201-209, 1995) and 786-O (ATCC #CRL-1932; Williams R D, et al. In Vitro 12: 623-627, 1976), were obtained from the American Type Culture Collection (Manassus, Va., USA) were cultured using routine methods until a sufficient number of cells were obtained for implantation. Studies were conducted on animals between 7 and 12 weeks of age at implantation. To implant HCT116 tumor cells into nude mice, the cells were trypsinized, washed in PBS and resuspended at a concentration of 75×10^6 cells/ml in McCoy's modified medium with 50% of BD Matrigel® Basement Membrane Matrix (BD Biosciences®, Bedford, Mass., USA). To implant 786-O tumor cells into nude mice, the cells were trypsinized as above, washed in PBS and resuspended at a concentration of 75×10^6 cells/ml in RPMI 1640 medium with 50% of BD Matrigel® Basement Membrane Matrix. Using a 27 gauge needle and 1 cc syringe, 0.1 ml of the cell suspension was injected into the corpus adiposum of nude mice. […] The location permits palpation and measurement of the tumors using external calipers. Tumor volumes (V) were calculated by caliper measurement of the width (W), length (L) and thickness (T) of tumors using the following formula: V=0.5236×(L×W×T).
As above, HCT116 and 786-O cells were cultured and implanted into nude mice using the methods in the previous example. Tumor growth was measured using calipers.
Tumor volume was monitored throughout the course of the study, until up to about 40 days from the date of tumor implantation. The exact number of days of the study depended on a number of factors including, for example, the number of days from implantation for the tumors to reach the desired volume.

[3] = tested on: renal cell carcinoma cell lines; settings: in vitro; cited from earlier work
[4] = tested on: advanced renal cell carcinoma (RCC); settings: cited from earlier work; for progression-free survival: P=0.0001
[5] = tested on: renal cell carcinoma (RCC); settings: 140 subjects with elevated LDH; temsirolimus vs interferon; log-rank p<0.005; cited from earlier work
hepatocellular carcinoma = settings: cited from earlier work
[6] = tested on: advanced renal cell carcinoma; settings: cited from earlier work
[7] = tested on: metastatic malignancies including renal cell carcinoma; settings: cited from earlier work
renal cancer = settings: arms: bevacizumab and interferon-alpha vs interferon-alpha alone; cited from earlier work
treatment-naïve RCC = settings: final analysis; arms: sunitinib vs IFN-α; cited from earlier work
[8] = arms: temsirolimus alone vs interferon-alpha

Compound: Nc1ccn([C@@H]2O[C@H](CO)[C@@H](O)C2(F)F)c(=O)n1 [gemcitabine]
- progression free survival ([1]; p=0.006): 3.5 months
- survival ([1]; p=0.028): 6.0 months

Compound: CO[C@H]1C[C@@H]2CC[C@@H](C)[C@@](O)(O2)C(=O)C(=O)N2CCCC[C@H]2C(=O)O[C@H]([C@H](C)C[C@@H]2CC[C@@H](OC(=O)C(C)(CO)CO)[C@H](OC)C2)CC(=O)[C@H](C)/C=C(\C)[C@@H](O)[C@@H](OC)C(=O)[C@H](C)C[C@H](C)/C=C/C=C/C=C/1C [temsirolimus]
- efficacy at slowing tumor growth in HCT116 (high hypoxia) versus 786O (low hypoxia) tumors [2]: not found to work better in the tumors with a higher level of hypoxia
- activity of mTOR [3]: inhibited the activity of mTOR
- levels of HIF-1, HIF-2 alpha and VEGF [3]: reduced levels of the hypoxia-inducible factors HIF-1 and HIF-2 alpha, and the vascular endothelial growth factor
- progression-free survival [4, 8]: 5.5 months
- overall survival versus interferon-alpha alone ([4]; combination of temsirolimus and interferon-alpha): did not result in a significant increase in overall survival
- increase in median overall survival ([4]; temsirolimus compared to interferon-alpha): 49%
- survival [5]: 6.9 months

Compound: CNC(=O)c1cc(Oc2ccc(NC(=O)Nc3ccc(Cl)c(C(F)(F)F)c3)cc2)ccn1 [sorafenib]
- efficacy at slowing tumor growth in HCT116 (high hypoxia) versus 786O (low hypoxia) tumors [2]: not found to work better in the tumors with a higher level of hypoxia
- disease control rate (DCR) (hepatocellular carcinoma; disease stabilization for at least 28 days): 43.48%
- time to progression HR (hepatocellular carcinoma; independent radiological review, sorafenib vs placebo, p=0.000007): 0.58
- overall survival HR (hepatocellular carcinoma; sorafenib 400 mg twice daily vs placebo, p=0.00058): 0.69
- median progression free survival ([6]; 769 patients, sorafenib 400 mg twice daily (N=384)): 167 days
- estimated improvement in overall survival vs placebo ([6]; as of 30 Nov. 2005, 367 deaths): 30%
- median PFS ([6]; patients with no prior IL-2 or interferon therapy (N=137)): 172 days
- median overall survival ([6]; sorafenib 400 mg twice daily, 367 deaths): 19.3 months
- progression free survival HR ([6]; sorafenib vs placebo, p<0.000001): 0.44
- progression free rate ([7]; at 24 weeks, p=0.0077): 50%
- progression free survival HR ([7]; sorafenib vs placebo): 0.29

Compound: interferon-alpha
- patients with decreased tumor size (renal cancer): 12%
- progression-free survival [4, 8]: 3.1 months
- median overall survival ([4]; arms: temsirolimus alone vs interferon-alpha, P=0.0078): 7.3 months
- survival [5]: 4.2 months
- median OS (treatment-naïve RCC): 94.9 weeks

Compound: COc1cc(Nc2nc3ccccc3nc2NS(=O)(=O)c2ccc(NC(=O)c3ccc(C)c(OC)c3)cc2)cc(OC)c1 [XL765]
- tumor growth rate versus control ([2]; XL765 30 mg/kg 5x/week P.O., p=0.009): reduced the growth rate of the tumor as compared to control
- efficacy at slowing tumor growth in HCT116 (high hypoxia) versus 786O (low hypoxia) tumors [2]: more effective at slowing tumor growth in tumors with high levels of hypoxia
